Here are results for 24 molecules from BindingDB's records for doi:10.1016/s0960-894x(99)00243-7 (Eisai Research Institute, 1999).

Series [1] is described as follows: Multidrug-resistant reversal activity using P388/VMDRC.04 cells (a subline of P388 murine leukemia cells expressing human recombinant human P-glycoprotein) in the presence of 10 nM vincristine.
A short description of series [2]: Evaluated for cytotoxicity using P388/VMDRC.04 cells (a subline of P388 murine leukemia cells expressing human recombinant human P-glycoprotein) in the absence of 10 nM vincristine.
Test in series [3]: as above
This is another data set of the same source.

Where “and” joins values, the source holds several entries; their conditions need not be identical. Identical values can stand only once.

As for `CCCCCCC[C@@H](O)[C@H](C)C(=O)O[C@H](C(=O)OC)C(C)C`, the results for the IC50 in series [1] and in series [2] were 16 µM and more than 83 µM, respectively.
As to `CCCCCCC[C@H]1OC(=O)C[C@@H](OCOC)[C@H](Cc2ccccc2)N(C)C(=O)[C@H](C(C)C)OC(=O)[C@H]1C`, the IC50 in series [3] came out at 6.1 µM.
For the molecule `CCCC[C@H]1OC(=O)C[C@H](O)[C@H](Cc2ccccc2)N(C)C(=O)COC(=O)[C@H]1C`, the IC50 was 18.1 µM in series [1] and more than 80 µM in series [2].
Turning to `CCCCCCC[C@H]1OC(=O)C[C@@H](O)[C@H](Cc2ccccc2)N(C)C(=O)[C@H](C(C)C)OC(=O)[C@H]1C` [HAPALOSIN], the IC50 was found to be 4.8 µM in series [1] and 14.8 µM in series [2].
Turning to `CCCCCCC[C@H]1OC(=O)C[C@H](OCOC)[C@H](Cc2ccccc2)N(C)C(=O)[C@H](C(C)C)OC(=O)[C@H]1C`, the IC50 in series [1] is 5.5 µM and 5.4 µM; in series [2], 41.5 µM.
As to `COCO[C@@H]1CC(=O)O[C@H](C)[C@H](C)C(=O)O[C@@H](C(C)C)C(=O)N(C)[C@H]1Cc1ccccc1`, the values for the IC50 in series [2] and in series [3] were more than 75 µM and 7.5 µM, respectively.
For the molecule `CCCC[C@H]1OC(=O)C[C@H](OCOC)[C@H](Cc2ccccc2)N(C)C(=O)COC(=O)[C@H]1C`, the IC50 in series [3] was 11.7 µM.
Turning to `COC(=O)C[C@@H](O)[C@H](Cc1ccccc1)N(C)C(=O)OCc1ccccc1`, the IC50 in series [2] is more than 89 µM; in series [3], 17.1 µM.
With `CCCCCCC[C@H]1OC(=O)C[C@@H](O)[C@H](Cc2ccccc2)N(C)C(=O)[C@H](C)OC(=O)[C@H]1C`, the values for the IC50 in series [1] and in series [2] were 6.2 µM and 27.1 µM, respectively.
For `CCCCCCC[C@H]1OC(=O)C[C@@H](OCOC)[C@H](Cc2ccccc2)N(C)C(=O)COC(=O)[C@H]1C`, the IC50 is 15.1 µM in series [2] and 2.3 µM in series [3].
With `CCCCCCC[C@H]1OC(=O)C[C@H](O)[C@H](Cc2ccccc2)N(C)C(=O)[C@H](C(C)C)OC(=O)[C@H]1C`, the values for the IC50 in series [1] and in series [2] were 5.7 µM and 42.2 µM, respectively.
The like results for `COCO[C@H]1CC(=O)O[C@H](C)[C@H](C)C(=O)OCC(=O)N(C)[C@H]1Cc1ccccc1` were, in that order, 42.7 µM and more than 100 µM.
Take `CCCCCCC[C@H]1OC(=O)CC[C@H](Cc2ccccc2)N(C)C(=O)[C@H](C(C)C)OC(=O)[C@H]1C`: the IC50 came to 33.7 µM in series [2] and 6 µM in series [3].
As for `C[C@@H]1C(=O)OCC(=O)N(C)[C@@H](Cc2ccccc2)[C@@H](O)CC(=O)O[C@@H]1C`, the IC50 in series [1] and in series [2] was more than 100 µM each time.
Take `CCCCCCC[C@H]1OC(=O)C[C@H](OCOC)[C@H](Cc2ccccc2)N(C)C(=O)C(C)(C)OC(=O)[C@H]1C`: the values for the IC50 in series [1] and in series [2] were 5.6 µM and 20 µM, respectively.
As for `CC(C)[C@@H]1OC(=O)[C@@H](C)[C@@H](C)OC(=O)C[C@@H](O)[C@H](Cc2ccccc2)N(C)C1=O`, the figures for the half-inhibitory concentration (IC50) in series [2] and in series [3] were more than 100 µM and 15 µM, respectively.
Regarding `COCO[C@H](CC(=O)OC)[C@H](Cc1ccccc1)N(C)C(=O)OCc1ccccc1`, the half-maximal inhibitory concentration (IC50) in series [1] was 14.9 µM; in series [2], more than 86 µM.
In the case of `CC(C)[C@@H]1OC(=O)[C@@H](C)COC(=O)C[C@@H](O)[C@H](Cc2ccccc2)N(C)C1=O`, the IC50 in series [3] is 21.9 µM.
As for `CCCCCCC[C@H]1OC(=O)C[C@H](O)[C@H](Cc2ccccc2)N(C)C(=O)C(C)(C)OC(=O)[C@H]1C`, the IC50 in series [1] is 4.3 µM; in series [2], 28.4 µM.
Turning to `CCCCCCC[C@@H]1CC(=O)O[C@@H](C(C)C)C(=O)N(C)[C@@H](Cc2ccccc2)[C@H](O)CC(=O)O1`, the values for the IC50 in series [2] and in series [3] were 24 µM and 6.2 µM, respectively.
The like results for `COCO[C@@H]1CC(=O)OC[C@H](C)C(=O)O[C@@H](C(C)C)C(=O)N(C)[C@H]1Cc1ccccc1` were, in that order, more than 100 µM and 10.4 µM.
For the molecule `CCCCCCC[C@H]1OC(=O)C[C@@H](O)[C@H](Cc2ccccc2)N(C)C(=O)COC(=O)[C@H]1C`, the IC50 in series [2] came to 22.5 µM; in series [3] it was 5.8 µM.
Turning to `CCCCCCC[C@H]1OC(=O)C[C@@H](OCOC)[C@H](Cc2ccccc2)N(C)C(=O)[C@H](C)OC(=O)[C@H]1C`, the IC50 was 5.9 µM in series [1] and 19.3 µM in series [2].
As for `CCCCCCC[C@@H]1CC(=O)O[C@@H](C(C)C)C(=O)N(C)[C@@H](Cc2ccccc2)[C@H](OCOC)CC(=O)O1`, the IC50 in series [2] was found to be 34.4 µM; in series [3] it was 6 µM.

One may read the IC50 as the midpoint of a concentration-inhibition curve.
